Experimental data published in article PMC6564044, “Exploring E-cadherin-peptidomimetics interaction using NMR and computational studies” (PLoS Computational Biology, 2019).
Read-outs that look alike come from different tables or passages of the source. Values belong to the compound of their own block, whether it stands above or below them. Positions of bridges follow the written chain, without caps; N, C: chain ends.

Assays:
[1] = tested on: N-cadherin mediated processes; conditions: cited from earlier work
From the text: Beside its broad-ranging effects on physiological tissue organization, classical cadherin dysfunction is often correlated with cancer progression and metastasis. Despite Epithelial (E)- to Neural (N-) cadherin switching being considered a molecular hallmark of epithelial to mesenchymal transition of cancer cells, carcinomas and distal metastases often retain E-cadherin expression, as observed for instance in late stage tumors in epithelial ovarian cancer (EOC). In this context, targeting the E-cadherin adhesive interface with small molecules could have a therapeutic a ...

[2] = tested on: wt E-cadherin-EC1-EC2; assay: tr-NOESY bound conformation; format: binding, human; conditions: presence of E-cadherin
Procedure: (§1) STD–NMR and tr-NOESY spectra were acquired in 20 mM phosphate buffer at pH 7.4 (with 150 mM NaCl and 1 mM CaCl2) and 40 μM EC1-EC2 fragments of E-cadherin. In this condition, a monomeric form is predominant in solution [28]. We performed STD-NMR experiments at 283K, 290K and 298K since lowering the temperature helps to […] the rotational correlation time of the receptor and to increase the effective magnetization transfer. […] Furthermore, we also studied the binding modes of the ligands in the presence of the truncated mutant (E-cadherin-(Val3)-EC1-EC2).
(§2) The spectra were acquired with a Bruker Avance 600 MHz instrument at 283, 290 and 298 K, in a 3 mm NMR tube and in the phosphate buffer previously described (200 μL).
(§3) The interaction between ligands and isolated proteins was detected using trNOESY, trROESY and STD experiments. In trNOESY and trROESY experiments, water suppression was achieved by use of an excitation sculpting pulse sequence. In STD experiments water suppression was achieved by using the WATERGATE 3-9-19 pulse sequence.

[3] = biological target: wt E-cadherin-EC1-EC2; assay: KD determination by STD-NMR titration (STD-AF isotherm); format: binding, human; conditions: STD-AF vs ligand concentration, two STD measurements per point; 283 K; protein 0.05 mM, ligand 2.0-16.0 mM
From the text: STD-NMR is a consolidated technique based on Overhauser effect that is used to study the interactions between small ligands and macromolecules. The method relies on the selective irradiation of the protein, which allows magnetization to be transferred to the bound ligand (which is in great excess in solution compared to the protein concentration). The saturated ligand is displaced in solution due to the binding equilibrium and the observation of the ligand signals in the NMR spectrum provides an indication of the interaction. […] In fact, the intensity of the STD signal (expressed as absolute STD percentage) reflects the proximity of the ligand to the protein surface. […]
In order to evaluate the interaction strength between E-cadherin and compound 1, we acquired a series of STD spectra at variable ligand concentrations. The STD amplification factor (STD-AF) can be calculated by multiplying the observed STD by the molar excess of the ligand over the protein [20, 21, 25–27], so that its values depend on the fraction of bound protein. […]
Supplementary file pcbi.1007041.s004.tif: S3 Fig Variation of STD-AF versus the increase of ligand 1 concentration in presence of E-cadherin interacting protons and the intensities observed are reported in the graph. We measured the KD value of compound 1 (S3 Fig) and 2 in the presence of E-cadherin by STD (for each point we performed two STD measurements). […]

[4] = tested on: wt E-cadherin-EC1-EC2; assay: STD-NMR epitope mapping with wt E-cadherin-EC1-EC2; format: binding, human
From the text: STD-NMR is a consolidated technique based on Overhauser effect that is used to study the interactions between small ligands and macromolecules. The method relies on the selective irradiation of the protein, which allows magnetization to be transferred to the bound ligand (which is in great excess in solution compared to the protein concentration). The saturated ligand is displaced in solution due to the binding equilibrium and the observation of the ligand signals in the NMR spectrum provides an indication of the interaction. Those ligand protons that are nearest to the protein are more likely to become highly saturated, and therefore show the strongest signal in the mono-dimensional STD spectrum. Owing to the efficiency of the saturation process, the modulation of the ligand signal intensity is used as an epitope-mapping method to describe the target-ligand interactions. In fact, the intensity of the STD signal (expressed as absolute STD percentage) reflects the proximity of the ligand to the protein surface. Therefore, the group epitope mapping obtained provides information about the nature of the chemical moieties of the ligand that are crucial for molecular recognition in the binding site. We also used the STD amplification factors (STD-AF) to derive the dissociation constant (KD) of the ligand-protein complexes. Moreover, we performed tr-NOESY experiments in order to determine the preferred bound conformation of the ligands.
as §1, §2, §3
(§4) The on-resonance irradiation of the protein was kept at -0.05 ppm. Off-resonance irradiation of the protein was applied at 200 ppm, where no protein signals were visible. Selective presaturation of the protein was achieved by a train of Gauss shaped pulses of 49 ms length each. The total length of the saturation train was 2.94 s.
(§5) All the experiments were conducted with the first two domains (EC1-EC2) of wt E–cadherin (Molecular Weight EC1-EC2 construct = 23 KDa) and with the construct lacking the first two residues (E-cadherin-(Val3)-EC1-EC2), with a ligand-protein ratio of 80:1.
Since calcium ions are important to rigidify the EC1-EC2 linker region in the monomeric protein and considering that the use of phosphate buffer in the presence of CaCl2 may be critical, due to the limited solubility of CaHPO4, we studied the stability of the protein in phosphate buffer. We monitored the chemical shift variation in ^1H-^15N-HSQC experiment using the ^15N-labeled protein for 24 hours and we can confirm that the protein remains in the correct folding.

[5] = tested on: E-cadherin-(Val3)-EC1-EC2; assay: STD-NMR epitope mapping with truncated E-cadherin; format: binding, human; conditions: for STD epitope with truncated E-cadherin: three temperatures, ligand-protein 80:1
Procedure: as §1, §2, §3, §4, §5

[6] = tested on: E-cadherin-EC1-EC2; conditions: mutant EC1-EC2 lacking Asp1-Trp2 (PDB 4ZTE) or intact EC1-EC2 as stated, cited from earlier work
From the text: Recently, we reported the first library of small peptidomimetic molecules targeting the strand-swapped dimer interfaces of E- and N-cadherin. These compounds are mimics of the tetrapeptide sequence Asp1-Trp2-Val3-Ile4 (DWVI) of the adhesion arm, modified by replacing the central dipeptide unit (WV) with various scaffolds, all of them bearing a benzyl group that is intended to mimic the indole moiety of Trp2.

[7] = Free ligand NMR conformational analysis (NOESY, VT-NMR); format: physicochemical; conditions: for hydrogen bonding of amide/exchangeable protons: free ligand, VT experiments (compound 1); for NOESY free-state conformation: phosphate buffer, 283 K and 298 K
Procedure: NMR spectroscopy experiments were performed at 283K and 298K on Bruker Avance 400 and 600 MHz spectrometers. All proton and carbon chemical shifts were assigned unambiguously and the assignments are reported in S1–S4 Tables. The NMR experiments were carried out in an aqueous phosphate (20 mM) buffer pH = 7 with 150 mM NaCl and 1 mM CaCl2 in order to observe amide protons with 10% D2O. Two-dimensional experiments (TOCSY, NOESY, ROESY and HSQC) were carried out on samples at a concentration range of 3–6 mM. NOESY experiments were performed with a mixing time of 200 and 700 ms.
In order to obtain clear spectra, the water signal suppression was achieved by using excitation sculpting sequence from Bruker library (DPFGSE, Double Pulse Field Gradient Spin Echo).
The conformations of the peptidomimetics were analysed with respect to hydrogen bonding of amide protons (VT-NMR spectroscopy) and NOE contacts.

[8] = 283, 290 and 298 K, wt E-cadherin-EC1-EC2
[9] = 283 K, wt E-cadherin-EC1-EC2, ligand-protein 80:1
[10] = 290 K, wt E-cadherin-EC1-EC2, ligand-protein 80:1
[11] = VT-NMR, phosphate 20 mM, pH 7, 10% D2O

Compound: Ac-CHAVC-NH2 (disulfide 1-5 (inferred)) [ADH-1]
reported activity [1]: anti-angiogenic agent able to cause cell apoptosis

Kd [3]: > 20 mM
Compound: CCC(C)C(NC(=O)C1CCC2CCN(Cc3ccccc3)CC(NC(=O)C(N)CC(=O)O)C(=O)N21)C(N)=O.O=C(O)C(F)(F)F (stereo not shown) [compound 2]
tr-NOESY bound conformation / contacts [2]: no long range interactions were detected | absolute STD % of aromatic protons [4, 8]: about 0.2% | absolute STD % of NH19 ([4]; 283 K, 40 μM protein, 20 mM phosphate pH 7.4, 150 mM NaCl, 1 mM CaCl2, ligand-protein 80:1): 2.078% | absolute STD % of C-terminal amidic NH2 [4, 9]: 0.2% | absolute STD % of scaffold H4/H6 [4, 9]: 0.265% | STD signal of scaffold H4 and H6 ([4]; 290 K, wt E-cadherin-EC1-EC2): not detectable | absolute STD % of C-terminal amidic NH2 [4, 10]: 0.463% | absolute STD % of NH19 [4, 10]: 1.441% | protons observable in STD spectrum ([4]; 298 K, wt E-cadherin-EC1-EC2): only the aromatic protons and the amidic NH2 (0.806%) are observable in the STD spectrum | absolute STD % of C-terminal amidic NH2 ([4]; 298 K, wt E-cadherin-EC1-EC2, ligand-protein 80:1): 0.806% | STD epitope with truncated E-cadherin ([5]; E-cadherin-(Val3)-EC1-EC2): the only protons that are involved in the interaction are the aromatic ones | X-ray binding / co-crystallization [6]: attempts to co-crystallize both compounds 1 and 2 with intact E-cadherin-EC1-EC2 did not yield results | hydrogen bonding of amide/exchangeable protons [7]: the exchangeable protons are not involved in intra-molecular hydrogen bond formation | NOESY free-state conformation [7]: did not show any significant long range NOE contact typical of a preferred conformation

Kd [3]: > 20 mM | binding affinity to truncated vs wt E-cadherin ([5]; E-cadherin-(Val3)-EC1-EC2 vs wt, 283 K): weaker binding affinity
Compound: CCC(C)C(NC(=O)CC1NC(=O)C(CNC(=O)C(N)CC(=O)O)N(Cc2ccccc2)C1=O)C(=O)NC(C)(C)C.O=C(O)C(F)(F)F (stereo not shown) [compound 1]
tr-NOESY bound conformation / contacts [2]: in the bound form compound 1 adopts an extended conformation | STD interaction of aromatic moiety [4, 8]: interacts at all the temperatures with similar strength | STD epitope changes (NH10, NH1, Ile NH) ([4]; 290 K, wt E-cadherin-EC1-EC2): NH10 STD signal disappears, NH1 decreases in intensity and the signal of the amidic Ile proton appears | STD epitope, NHIle ([4]; 298 K, wt E-cadherin-EC1-EC2): NHIle signal replaces those of NH1 and NH10 | STD epitope, NH1 and NH10 ([4]; lowest temperature (283 K), wt E-cadherin-EC1-EC2): strong interactions at the lowest temperature | STD interaction of Ile backbone NH ([4]; temperature dependence, wt E-cadherin-EC1-EC2): seems to interact only at a higher temperature | STD epitope with truncated E-cadherin ([5]; E-cadherin-(Val3)-EC1-EC2): only the aromatic protons are able to interact with the protein | N-terminal Asp amine signal in STD ([5]; lower amount of D2O, E-cadherin-(Val3)-EC1-EC2): the N-terminal amine of the Asp residue of the ligand can be observed | X-ray binding / co-crystallization [6]: binds to a dimeric conformation of E-cadherin, the so-called ‘X-dimer’ | X-ray binding / co-crystallization ([6]; listed as compounds 1): attempts to co-crystallize both compounds 1 and 2 with intact E-cadherin-EC1-EC2 did not yield results | Δδ/ΔT of NH10 ([7]; VT-NMR, phosphate 20 mM, pH 7, 150 mM NaCl, 1 mM CaCl2, 10% D2O): 4.67 ppb*10^3 | Δδ/ΔT of NH1 [7, 11]: 8.33 ppb*10^3 | Δδ/ΔT of NHIle [7, 11]: 7.67 ppb*10^3 | Δδ/ΔT of NHtBu [7, 11]: 7.33 ppb*10^3 | hydrogen bonding of amide/exchangeable protons [7]: NH10 is the only one that could be engaged in an inter-molecular hydrogen bond | NOESY free-state conformation [7]: equilibrium between different conformations
